In test [1] the target is T1, Protein RecA (Mycobacterium tuberculosis, UniProt P9WHJ3).
T1 sequence (P9WHJ3 whole entry): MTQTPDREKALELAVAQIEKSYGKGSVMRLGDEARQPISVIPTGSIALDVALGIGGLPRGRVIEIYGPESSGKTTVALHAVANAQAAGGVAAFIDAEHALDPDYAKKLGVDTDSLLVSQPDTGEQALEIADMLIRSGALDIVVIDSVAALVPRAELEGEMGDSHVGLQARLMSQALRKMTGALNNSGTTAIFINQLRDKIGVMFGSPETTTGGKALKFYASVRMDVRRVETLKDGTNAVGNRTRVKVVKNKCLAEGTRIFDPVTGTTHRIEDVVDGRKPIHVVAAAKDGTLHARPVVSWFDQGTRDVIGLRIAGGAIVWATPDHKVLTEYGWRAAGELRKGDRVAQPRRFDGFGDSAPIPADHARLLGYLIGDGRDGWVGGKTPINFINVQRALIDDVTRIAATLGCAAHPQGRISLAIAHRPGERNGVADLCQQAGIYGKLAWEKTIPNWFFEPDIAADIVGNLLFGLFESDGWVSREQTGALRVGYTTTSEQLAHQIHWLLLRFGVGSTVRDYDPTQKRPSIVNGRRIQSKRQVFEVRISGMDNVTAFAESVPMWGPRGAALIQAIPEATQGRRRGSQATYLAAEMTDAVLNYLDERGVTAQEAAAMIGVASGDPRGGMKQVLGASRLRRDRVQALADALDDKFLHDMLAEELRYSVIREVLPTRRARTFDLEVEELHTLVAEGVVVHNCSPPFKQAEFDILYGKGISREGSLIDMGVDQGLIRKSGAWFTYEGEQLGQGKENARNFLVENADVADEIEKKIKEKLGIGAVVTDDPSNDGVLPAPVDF
Description: Fluorescence Cell-Free Homogeneous Dose Retest to Identify Inhibitors of RecA-Intein Splicing Activity. [Related pubchem assays (depositor defined):AID2097, AID2223, AID489010, AID492950]. In kind it is functional.

For test [2], the target named is T2, Tyrosine-protein phosphatase non-receptor type 22 (Homo sapiens, UniProt Q9Y2R2).
T2 sequence (Q9Y2R2 whole entry): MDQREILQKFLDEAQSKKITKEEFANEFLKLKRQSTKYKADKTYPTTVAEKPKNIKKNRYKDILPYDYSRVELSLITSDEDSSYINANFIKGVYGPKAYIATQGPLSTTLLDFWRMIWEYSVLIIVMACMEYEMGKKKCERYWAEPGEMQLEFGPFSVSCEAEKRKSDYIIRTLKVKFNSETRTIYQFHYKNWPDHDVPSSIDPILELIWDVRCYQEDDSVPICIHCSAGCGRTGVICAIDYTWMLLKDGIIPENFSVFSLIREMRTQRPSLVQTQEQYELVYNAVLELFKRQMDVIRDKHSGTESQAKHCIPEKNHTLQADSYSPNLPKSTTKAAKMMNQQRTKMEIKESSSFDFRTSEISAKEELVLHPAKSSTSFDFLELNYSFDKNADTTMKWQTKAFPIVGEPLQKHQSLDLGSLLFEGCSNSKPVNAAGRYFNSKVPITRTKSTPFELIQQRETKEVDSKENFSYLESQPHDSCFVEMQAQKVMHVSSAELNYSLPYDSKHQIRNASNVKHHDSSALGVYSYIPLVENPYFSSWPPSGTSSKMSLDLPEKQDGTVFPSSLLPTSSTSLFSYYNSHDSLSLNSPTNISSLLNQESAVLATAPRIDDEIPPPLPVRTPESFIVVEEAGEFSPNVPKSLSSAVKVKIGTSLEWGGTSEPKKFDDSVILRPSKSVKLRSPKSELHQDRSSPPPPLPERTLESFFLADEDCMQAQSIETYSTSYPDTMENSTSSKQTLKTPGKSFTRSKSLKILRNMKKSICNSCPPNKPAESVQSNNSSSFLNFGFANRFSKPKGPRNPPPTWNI
In kind it is functional.

Test [3] addresses T3, Dual specificity protein phosphatase 3 (Homo sapiens, UniProt P51452). The experiment in a line: SAR VHR1 Fluorescent Assay for In Vitro dose response studies. [Related pubchem assays (depositor defined):AID1654, AID1661, AID1878, AID1992, AID2004, AID2070, AID2085]. In kind it is functional.
Test [4] addresses T2, Tyrosine-protein phosphatase non-receptor type 22. Description: lymphoid phosphatase LYP inhibitors – biochemical, selectivity assay for STEP inhibitor project, dose response (AID 624241). In kind it is functional.
In test [5] the target is T4, Tyrosine-protein phosphatase non-receptor type 7 (Homo sapiens, UniProt P35236).
T4 sequence (P35236 whole entry): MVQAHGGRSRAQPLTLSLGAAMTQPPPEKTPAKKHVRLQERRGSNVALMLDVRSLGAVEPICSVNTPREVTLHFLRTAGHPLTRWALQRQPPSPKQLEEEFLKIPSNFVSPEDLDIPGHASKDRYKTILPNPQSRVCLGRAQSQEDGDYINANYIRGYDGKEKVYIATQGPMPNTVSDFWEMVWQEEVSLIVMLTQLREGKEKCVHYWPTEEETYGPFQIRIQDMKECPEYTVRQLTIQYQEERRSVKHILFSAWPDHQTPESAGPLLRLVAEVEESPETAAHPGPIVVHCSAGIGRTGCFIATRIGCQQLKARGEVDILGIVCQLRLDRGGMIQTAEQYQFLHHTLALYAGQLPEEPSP
In kind it is functional.

The target of test [6] is T2, Tyrosine-protein phosphatase non-receptor type 22. The experiment in a line: LYP1 Fluorescent Assay using OMFP substrate for In Vitro dose response studies. [Related pubchem assays (depositor defined):AID1779, AID1784, AID435024].
Test [7] concerns the target T3, Dual specificity protein phosphatase 3. Description: SAR VHR1 Fluorescent Assay for In Vitro dose response studies Set 2. [Related pubchem assays (depositor defined):AID1654, AID1661, AID1878]. In kind it is functional.
In test [8] the target is Serine/threonine-protein phosphatase PP1-alpha catalytic subunit (Homo sapiens, UniProt P62136). Description: inhibition of protein phosphatase 1 activity – biochemical, fluorescence, dose response (AID 2394).

Active and inactive are the calls of the source.

T3 sequence (P51452 whole entry): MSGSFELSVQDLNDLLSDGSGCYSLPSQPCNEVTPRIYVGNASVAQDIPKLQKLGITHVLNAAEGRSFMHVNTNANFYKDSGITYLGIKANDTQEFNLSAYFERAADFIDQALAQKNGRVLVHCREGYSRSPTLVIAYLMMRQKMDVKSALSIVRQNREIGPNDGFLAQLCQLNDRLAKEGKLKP
Serine/threonine-protein phosphatase PP1-alpha catalytic subunit, sequence (P62136 whole entry): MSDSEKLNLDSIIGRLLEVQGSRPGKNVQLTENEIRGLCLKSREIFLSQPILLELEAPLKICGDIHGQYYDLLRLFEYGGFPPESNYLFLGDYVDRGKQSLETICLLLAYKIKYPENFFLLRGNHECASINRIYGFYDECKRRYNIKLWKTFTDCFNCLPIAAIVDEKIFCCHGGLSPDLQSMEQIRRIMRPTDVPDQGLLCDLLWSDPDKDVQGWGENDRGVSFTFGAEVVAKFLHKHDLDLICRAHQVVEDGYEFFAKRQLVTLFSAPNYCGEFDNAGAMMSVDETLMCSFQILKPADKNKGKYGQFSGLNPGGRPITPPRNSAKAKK

For the compound `CCOC(=O)c1ccc(Nc2cc3ccccc3c(O)n2)cc1`, in test [1], the EC50 (in general, the concentration that produces a half-maximal response) was 9.12 µM (active).
Turning to `CCOC(=O)c1sc2nc3c(SCC(=O)O)cc(C(=O)c4ccccc4O)cn3c(=O)c2c1C`, the IC50 – broadly, the midpoint of a concentration-inhibition curve – was < 1.24 µM (active) in test [2]; 0.382 µM (active) in test [3]; 1.16 µM (active) in test [4]; < 1.24 µM (active) in test [5]; > 99 µM (inactive) in test [6]; 0.218 µM (active) in test [7].
In the case of `C=CCn1c(NC(=O)c2ccccc2Cl)c(C#N)c2nc3ccccc3nc21`, in test [8], the IC50 is recorded as 43.6 µM (not active).
